Experimental data taken from article PMC6431625 (Frontiers in Endocrinology, 2019).
Each block holds one molecule with its values, some of them ahead of it.

What was measured:
FP = test system: FP; parameters: method as in PMID 10454504; conditions: cited from earlier work
OTR-Venus = type: cell-based, human; conditions: ligand 1 μM
AT1R-RlucII = biological target: T1, AT1R-RlucII (Homo sapiens, UniProt P30556+P43088); experiment: Enhanced bystander BRET trafficking of AT1R-RlucII co-expressed with wildtype FP (Lyn-rGFP, rGFP-FYVE); type: cell-based; conditions: ligand 1 μM; co-expressed WT FP; HEK293
T1 construct: SP (signal peptide) (N); expressed in transfected cells; host or cells: HEK293

AT1R-WT/FP-Venus dimer = biological target: T2, AT1R-WT/FP-Venus dimer (Homo sapiens, UniProt P30556+P43088); type: cell-based; conditions: ligand 1 μM
T2 construct: SP (signal peptide) (N); expressed in transfected cells; host or cells: HEK 293

FP-RlucII = biological target: T3, FP-RlucII (Homo sapiens, UniProt P43088); experiment: Enhanced bystander BRET trafficking of FP-RlucII co-expressed with wildtype AT1R (Lyn-rGFP, rGFP-FYVE); type: cell-based; conditions: co-expressed WT-AT1R; HEK293; PGF2α 1 μM; Ang II data not shown
T3 construct: SP (signal peptide) (N); expressed in transfected cells; host or cells: HEK293

AT1R[Δ325]-Venus = biological target: T4, AT1R[Δ325]-Venus (Homo sapiens, UniProt P30556+P43088); type: cell-based; conditions: ligand 1 μM
T4 construct: SP (signal peptide) (N); expressed in transfected cells; host or cells: HEK 293

FP-Venus = biological target: T5, FP-Venus (Homo sapiens, UniProt P43088); type: cell-based; conditions: ligand 1 μM
T5 construct: SP (signal peptide) (N); expressed in transfected cells; host or cells: HEK 293

AT1R-Venus = biological target: T6, AT1R-Venus (Homo sapiens, UniProt P30556); type: cell-based; conditions: ligand 1 μM
T6 construct: SP (signal peptide) (N); expressed in transfected cells; host or cells: HEK 293
T6 sequence (P30556 1-359): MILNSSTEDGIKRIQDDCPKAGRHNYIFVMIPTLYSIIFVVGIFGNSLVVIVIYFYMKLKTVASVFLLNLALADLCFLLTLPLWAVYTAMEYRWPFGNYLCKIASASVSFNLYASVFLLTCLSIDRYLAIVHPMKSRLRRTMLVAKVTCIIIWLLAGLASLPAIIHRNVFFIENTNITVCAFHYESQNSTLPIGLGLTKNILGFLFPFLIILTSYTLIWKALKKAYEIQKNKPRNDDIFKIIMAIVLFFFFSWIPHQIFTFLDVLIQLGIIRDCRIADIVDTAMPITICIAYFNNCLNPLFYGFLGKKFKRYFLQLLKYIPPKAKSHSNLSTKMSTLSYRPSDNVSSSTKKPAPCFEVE

[1] = biological target: T7, SP-FLAG-hAT1R-KPVAT-Venus (human, UniProt P30556 1-359); experiment: FRET or BRET; living HEK 293 parental cells, 37°C, Kreb's buffer pH 7.4; β-arrestin-RlucII donor, receptor-Venus acceptor co-expressed with the untagged partner receptor (AT1R-Venus, AT1R[Δ325]-Venus or OTR-Venus with FP-WT; FP-Venus with AT1R-WT); ΔBRET after PGF2α (1 μM); also other FP ligands, AT1R antagonists and endocytosis inhibitors; conditions: partners not purified
T7 construct: human angiotensin II type 1 receptor, wild type; amplified from pcDNA3/SP-FLAG-hAT1R-WT; A signal peptide (SP); BRET acceptor; also called AT1R-Venus; angiotensin II type 1 receptor; not shown: Venus (after the linker KPVAT), C-terminal, kept
T7 sequence (looked up): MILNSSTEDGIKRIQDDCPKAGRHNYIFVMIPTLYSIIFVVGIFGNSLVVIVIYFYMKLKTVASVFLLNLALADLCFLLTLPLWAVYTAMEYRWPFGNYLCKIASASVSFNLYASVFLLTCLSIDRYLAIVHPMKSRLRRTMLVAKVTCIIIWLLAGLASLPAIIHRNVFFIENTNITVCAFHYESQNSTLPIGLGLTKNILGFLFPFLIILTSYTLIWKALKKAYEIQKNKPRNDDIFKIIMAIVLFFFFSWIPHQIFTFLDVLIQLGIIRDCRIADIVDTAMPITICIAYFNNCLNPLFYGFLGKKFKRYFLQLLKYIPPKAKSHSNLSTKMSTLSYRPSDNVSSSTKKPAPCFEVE

[2] = biological target: T7, SP-FLAG-hAT1R-KPVAT-Venus; experiment: FRET or BRET; living HEK 293 cells, 37°C, Kreb's buffer pH 7.4, coelenterazine h; β-arrestin-RlucII donor, receptor-Venus acceptor expressed alone (no partner receptor); ligand-induced ΔBRET after Ang II (1 μM), followed 90 min; conditions: partners not purified

T2 sequence (P43088 whole entry, one chain of several): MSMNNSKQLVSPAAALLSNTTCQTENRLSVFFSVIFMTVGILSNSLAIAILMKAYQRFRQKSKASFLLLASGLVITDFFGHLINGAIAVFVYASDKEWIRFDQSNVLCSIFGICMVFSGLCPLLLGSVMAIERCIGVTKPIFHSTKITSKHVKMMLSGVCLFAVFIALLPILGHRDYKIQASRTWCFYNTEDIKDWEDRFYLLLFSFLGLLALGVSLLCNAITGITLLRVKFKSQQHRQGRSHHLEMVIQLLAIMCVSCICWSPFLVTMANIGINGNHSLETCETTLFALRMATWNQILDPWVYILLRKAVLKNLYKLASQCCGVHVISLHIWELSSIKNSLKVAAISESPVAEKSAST
T1 sequence (P43088 whole entry, one chain of several): as above
T4 sequence (P43088 whole entry, stated change not applied, one chain of several): as the sequence (P43088 whole entry, one chain of several) above
T3 sequence (P43088 whole entry, one chain of several): as above
T5 sequence (P43088 whole entry): as the sequence (P43088 whole entry, one chain of several) above

Molecule: O=C(O)CCC/C=C\C[C@@H]1[C@@H](/C=C/[C@H](O)C2Cc3ccccc3C2)[C@@H](F)C[C@@H]1O [AL-8810]
Agonist properties at FP (FP): partial agonist properties

Ligand-induced recruitment of β-arrestin 1/2-RlucII to the AT1R-WT/FP-Venus dimer (AT1R-WT/FP-Venus dimer): did not induce recruitment
Ligand-induced recruitment of β-arrestin 1/2-RlucII to AT1R[Δ325]-Venus in the context of the dimer (AT1R[Δ325]-Venus): No responses were detected
Ligand-induced recruitment of β-arrestin 1/2-RlucII to FP-Venus alone (FP-Venus): did not induce recruitment
Ligand-induced recruitment of β-arrestin 1/2-RlucII to AT1R-Venus alone (AT1R-Venus): no responses were detected
Molecule: CCCCC[C@H](O)/C=C/[C@@H]1[C@@H](C/C=C\CCCC(=O)O)[C@@H](O)C[C@H]1O [PGF2α, prostaglandin F2α]
Ligand-induced recruitment of β-arrestin 1/2-RlucII to OTR-Venus in the context of the dimer (OTR-Venus): No responses were detected
Trafficking of AT1R-RlucII (membrane Lyn-rGFP and endosome rGFP-FYVE bystander BRET) (AT1R-RlucII): time-dependent loss of the membrane signal and an increase in the endosomal population
Trafficking of FP-RlucII (membrane Lyn-rGFP and endosome rGFP-FYVE bystander BRET) (FP-RlucII): loss of membrane-localized receptor and a transient increase in an early endosomal population

t1/2 of ligand-induced recruitment (BRET) [1]: 20 min
t1/2 of ligand-induced recruitment (BRET) [2]: < 2 min
B1: β-arrestin 1-RlucII (natural protein, UniProt P49407 1-418, looked up)
chain: MGDKGTRVFKKASPNGKLTVYLGKRDFVDHIDLVDPVDGVVLVDPEYLKERRVYVTLTCAFRYGREDLDVLGLTFRKDLFVANVQSFPPAPEDKKPLTRLQERLIKKLGEHAYPFTFEIPPNLPCSVTLQPGPEDTGKACGVDYEVKAFCAENLEEKIHKRNSVRLVIRKVQYAPERPGPQPTAETTRQFLMSDKPLHLEASLDKEIYYHGEPISVNVHVTNNTNKTVKKIKISVRQYADICLFNTAQYKCPVAMEEADDTVAPSSTFCKVYTLTPFLANNREKRGLALDGKLKHEDTNLASSTLLREGANREILGIIVSYKVKVKLVVSRGGLLGDLASSDVAVELPFTLMHPKPKEEPPHREVPENETPVDTNLIELDTNDDDIVFEDFARQRLKGMKDDKEEEEDGTGSPQLNNR
notes: β-arrestin 1; BRET donor; also called βarr1-RlucII
